Assays:
[1] = system: parent elite stiff stalk inbred corn; assay: Postemergence effect of ALS herbicides, glyphosate and glufosinate (fresh weight, visual injury); details: 200 g/ha (glyphosate 3472 g ae/ha, glufosinate ammonium 1870 g/ha), mean of four replications; for % Visual Injury Parent elite stiff stalk inbred: 2 weeks after treatment, 0% no injury, 100% plant death; for Fresh Weight (g) Parent elite stiff stalk inbred: applied two weeks after planting, fresh shoots 2 weeks after treatment, untreated 76.4 g
[2] = system: parent elite stiff stalk inbred corn; assay: Preemergence effect of ALS herbicides (fresh weight, visual injury); details: 200 g/ha, mean of four replications; for % Visual Injury Patent elite stiff stalk inbred: 4 weeks after treatment, 0% no injury, 100% plant death; for Fresh Weight (g) patent elite stiff stalk inbred: fresh shoots 4 weeks after treatment, untreated 36.7 g
control maize = assay: Postemergence herbicide spray at V2, injury evaluated 10-14 days after application; format: in vivo; details: tribenuron, chlorimuron, imazapyr 200 g ai/ha, metsulfuron-methyl 0.5 oz ai/ac or 35 g ai/ha, 10-14 days after spray
[3] = system: heterozygous GAT-HRA corn; assay: Preemergence effect of ALS herbicides (fresh weight, visual injury); details: 200 g/ha, mean of four replications; for % Visual Injury Heterozygous GAT-HRA: 4 weeks after treatment, 0% no injury, 100% plant death; for Fresh Weight (g) Heterozygous GAT-HRA: fresh shoots 4 weeks after treatment, untreated 47.0 g
GAT-HRA maize = assay: Postemergence herbicide spray at V2, injury evaluated 10-14 days after application
Description: GAT-HRA maize plants were evaluated for tolerance to glyphosate and other herbicides. One protocol used in this evaluation was as follows. At the V2 stage (Ritchie and Hanway (1982), “How a corn plant develops” Spec. Rep. 48. (Coop. Ext. Ser., Iowa State Univ., Ames, Iowa)), plant heights were measured and herbicides were applied by spray application. Ten to fourteen days after the spray application, the transgenic plants were evaluated for injury symptoms and measured for plant height again in order to determine plant growth rates.
Plants were then evaluated at various times after treatment, such as 10 or 14 days after treatment. […] Leaf samples were taken from GAT-HRA plants and used in quantitative PCR analysis and other analyses to determine the number and arrangement of copies of the GAT and HRA polynucleotides that had been integrated into the plant genome.
Other protocols for evaluation included treatment with imidazolinone herbicides, such as the commercial herbicide Lightning® (a combination of imazapyr and imazethapyr), which was applied to GAT-HRA maize at the V2 leaf stage at four times the field label rate (250 g ai/ha). […] Another protocol for evaluation included treatment with imidazolinone herbicides as well as sulfonylurea and glyphosate herbicides. In these tests, GAT-HRA maize was treated with various combinations of Lightning® (imazapyr and imazethapyr), Basis® (rimsulfuron and thifensulfuron-methyl) and WeatherMAX® (glyphosate potassium salt). These herbicides were applied at the V2 stage as follows: Lightning® at twice the field label rate (1.8 oz ai/ac (133 ml ai/ha)), Basis® at twice the field label rate (0.5 oz ai/ac (36.9 ml ai/ha)) and WeatherMax® at four times the field label rate (43 oz ai/ac). Fourteen days after the treatment application, the plants were evaluated. […] “Field label rate” refers to the application rate specified on the product label. Where the application rate for a particular situation is a range of rates, as used herein, the term “field label rate” indicates the upper end of that range. […]

[4] = system: heterozygous GAT-HRA corn; assay: Postemergence effect of ALS herbicides, glyphosate and glufosinate (fresh weight, visual injury); details: 200 g/ha (glyphosate 3472 g ae/ha, glufosinate ammonium 1870 g/ha), mean of four replications; for % Visual Injury Heterozygous GAT-HRA: 2 weeks after treatment, 0% no injury, 100% plant death; for Fresh Weight (g) Heterozygous GAT-HRA: applied two weeks after planting, fresh shoots 2 weeks after treatment, untreated 98.8 g
[5] = system: non-glyphosate resistant Conyza (Welgevallen-paraquat resistant); assay: Control of hairy fleabane by glyphosate, metsulfuron-methyl and two additives (Table 24); format: in vivo, Conyza bonariensis
Description: This example included the same treatments as used in Example 11, except the treatments were carried out on a glyphosate sensitive biotype of Kleinskraalhans (Conyza bonariensis).
• Biotype: Non-glyphosate resistant Conyza (Welgevallen-paraquat resistant) • Growth Stage: 10-15 leaf stage • Conditions: Cool and sunny • Volume rate: 200 L ha^−1 • glyphosate (ROUNDUP): 360 g a.i. L^−1

[6] = system: non-glyphosate resistant ryegrass (70-04); assay: Control of ryegrass by glyphosate, metsulfuron-methyl and two additives (Table 23); format: in vivo
Description: The example was conducted on non-glyphosate resistant ryegrass. As provided in Table 23, all treatments that included glyphosate [180 g a.i. L ha^−1 (0.5 L glyphosate (SCAT®))] plus metsulfuron-methyl (BRUSH-OFF®) (5 and 10 g ha^−1) gave 100% control of the ryegrass.
• Biotype: non-glyphosate resistant ryegrass (70-04) • Population profile: Rup 0.25 control (%) 6.25 • Rup 0.5 control (%) 81.25 • Rup 1.0 control (%) 93.75 • Growth Stage: 5-6 leaf stage • Conditions: hot and sunny • Volume rate: 200 L ha^−1

[7] = system: non-transgenic control soybeans; assay: Postemergence greenhouse spray of soybeans, visual injury (Table 11); details: tribenuron-methyl 35 g/ha
Description: Young regenerated transgenic plants were sprayed with 1× glyphosate (1× rate of glyphosate is 1120 g/ha of glyphosate isopropylamine) to cull segregants. Four replications were performed for each treatment. Plants were then treated with various herbicides, including glyphosate and ALS-inhibitor herbicides.
Six soybean seeds from each variety to be assayed were planted 1 cm deep in 5.5 (13.97 cm) inch square plastic container of a synthetic growth medium. […] When possible, containers were thinned to two uniform plants. Non-transgenic lines were thinned to two uniform plants per container.
Results are expressed below in Table 11 as the mean of four replications.

[8] = system: GAT-HRA transgenic cotton plants; assay: Greenhouse over the top herbicide spray of cotton; format: in vivo, Gossypium hirsutum; details: rimsulfuron 16 g active ingredient/hectare over the top after glyphosate 1.5 lb ae/acre; 14 days after rimsulfuron, 28 days after glyphosate
Text: (§1) Transformed cotton plants were rooted and then transferred to soil for further growth. Plants were then subjected to herbicide spray treatments in a greenhouse. […] Untransformed Coker 312 control plants were dead 2 weeks after glyphosate application. […] Plants transformed with both GAT and HRA were further subjected to an “over the top” application of the sulfonylurea herbicide rimsulfuron at a rate of 16 g active ingredient/hectare. […] In further experiments 32 g ai/ha rimsulfuron were applied to the cotton.

[9] = system: untransformed Coker 312 cotton; assay: Greenhouse over the top herbicide spray of cotton; format: in vivo, Gossypium hirsutum; details: rimsulfuron 16 g active ingredient/hectare, even in the absence of glyphosate
Text: as §1

[10] = Trial 2: metsulfuron-methyl (BRUSH-OFF) 5 g/ha
[11] = Trial 3: metsulfuron-methyl (BRUSH-OFF) 10 g/ha

Structure (SMILES)	% Visual Injury Parent elite stiff stalk inbred [1] [%]	% Visual Injury Patent elite stiff stalk inbred [2] [%]	damage from the treatment, control maize (control maize)	% Visual Injury Heterozygous GAT-HRA [3] [%]	damage from the treatment, GAT-HRA maize (GAT-HRA maize; in vivo)	% Visual Injury Heterozygous GAT-HRA [4] [%]	Control (%) [5, 10] [%]	Control (%) [5, 11] [%]	Control (%) [6, 10] [%]	Control (%) [6, 11] [%]	effect on non-transgenic control soybeans [7]	transgenic plants with no deleterious symptoms from the dual herbicide application [8]	damage of untransformed Coker 312 plants [9]	Fresh Weight (g) Parent elite stiff stalk inbred [1] [g]	Fresh Weight (g) patent elite stiff stalk inbred [2] [g]	Fresh Weight (g) Heterozygous GAT-HRA [3] [g]	damage from the treatment, GAT-HRA maize (GAT-HRA maize; postemergence spray at V2, tribenuron (Express), chlorimuron (Classic), imazapyr (Arsenal) 200 g ai/ha, metsulfuron-methyl (Ally) 0.5 oz ai/ac or 35 g ai/ha, 10-14 days after spray)	Fresh Weight (g) Heterozygous GAT-HRA [4] [g]
CC(C)C1(C)N=C(c2ncccc2C(=O)O)NC1=O (centres unmarked) [Imazapyr]	100	99	severely damaged or killed	30	no significant damage	1												
COC(=O)c1ccccc1S(=O)(=O)NC(=O)Nc1nc(C)nc(OC)n1 [Metsulfuron-methyl, methyl 2-[[[[(4-methoxy-6-methyl-1,3,5-triazin-2-yl)amino]carbonyl]amino]sulfonyl]benzoate]	100	100	severely damaged or killed	0	no significant damage	14												
COC(=O)c1ccccc1S(=O)(=O)NC(=O)Nc1nc(C)nc(OC)n1 [Metsulfuron-methyl (BRUSH-OFF ®)]							100	100	0	0								
COC(=O)c1ccccc1S(=O)(=O)NC(=O)N(C)c1nc(C)nc(OC)n1 [Tribenuron-methyl, methyl 2-[[[[N-(4-methoxy-6-methyl-1,3,5-triazin-2-yl)-N-methylamino]carbonyl]-amino]sulfonyl]benzoate]	100	66		25		8					killed by the treatment							
CCS(=O)(=O)c1cccnc1S(=O)(=O)NC(=O)Nc1nc(OC)cc(OC)n1 [Rimsulfuron, N-[[(4,6-dimethoxy-2-pyrimidinyl)amino]carbonyl]-3-(ethylsulfonyl)-2-pyridinesulfonamide]	91	74		0		10						approximately 35%	severe damage					
CCOC(=O)c1ccccc1S(=O)(=O)NC(=O)Nc1nc(Cl)cc(OC)n1 [Chlorimuron-ethyl, ethyl 2-[[[[(4-chloro-6-methoxy-2-pyrimidinyl)amino]carbonyl]amino]sulfonyl]-benzoate]	93	100	severely damaged or killed	10		15								10.1	9.3	39.4	no significant damage	95.5
COC(=O)c1ccccc1S(=O)(=O)NC(=O)Nc1nc(C)cc(C)n1 [Sulfometuron-methyl, methyl 2-[[[[(4,6-dimethyl-2-pyrimidinyl)amino]carbonyl]amino]sulfonyl]-benzoate]	100	100		6		2								2.0	0.0	47.3		104.5
CCCOc1nn(C(=O)NS(=O)(=O)c2ccccc2C(=O)OC)c(=O)n1C [Propoxycarbazone Na^+, methyl 2-[[[(4,5-dihydro-4-methyl-5-oxo-3-propoxy-1H-1,2,4-triazol-1-yl)carbonyl]amino]sulfonyl]benzoate]	100	100		100		9								1.9	0.6	46.7		101.2
